Several values for one entry are separate records, joined by “and”; a condition that tells them apart may be missing. Identical values can stand only once. Like-named read-outs stand apart in the source and are kept apart here. Numbered stars: 1 amine (or outer) side, 2 acyl side, 3 side chain; on linkers, the order of the positions; unused ones are H or OH. Square brackets hold non-standard residues; d marks the D form. Peptide text beside a SMILES is read from it. ξ: configuration not given here. X1 = CN(C(Cc1cn(Cc2ccc(Br)cc2)c2ccccc12)C(=O)[*:2])[*:1]; ξAla(CF3) = NC(CC(F)(F)F)C(=O)O; X2 = N#CCCC(O[*:1])C(=O)[*:2]; NMeL = CN[CH](CC(C)C)C(=O)O; NMeA = CN[CH](C)C(=O)O
Key:
[1] = target: T1, Sec61 (Homo sapiens, UniProt P61619); assay: signal peptide-GLuc (SP-GLuc) reporter panel, 89 constructs; assay type: cell-based; conditions: read-out: log10(IC50 8445) (converted)
T1 construct: endogenous in cells
Source text: The heat map depicts IC50 values calculated from each SP-GLuc dose–response curve. d, Arthritis was induced in BALB/c mice with antibodies specific for type II collagen (mAb) on day 0 and endotoxin on day 3. On day 4, when the disease was present in all animals, mice were randomized and treated for 2 weeks with thrice weekly (QODx3) or weekly (QW) intravenous administration of vehicle or KZR-8445 or intraperitoneal administration of dexamethasone. Clinical scores (0–4 per paw; n = 10 per group) and body weights were followed until day 14. Data are presented as mean values ± s.d. mAb, monoclonal antibody. Source data
To investigate the effects of KZR-8445 on secretory and membrane protein biogenesis and to establish Sec61α as the relevant target, we quantified the secretion of a doxycycline-inducible Gaussia luciferase (GLuc) reporter fused to the C-terminus of two full-length pro-inflammatory cytokines, interleukin-2 (IL-2) (which contains a cleavable signal peptide) and tumor necrosis factor-alpha (TNFα) (which contains an N-terminal transmembrane anchor). […] KZR-8445 is structurally related to CT8, which discriminates among Sec61 clients based largely on their N-terminal signal peptide. […] We also directly compared KZR-8445 to mycolactone A/B, a structurally distinct and relatively client-nonselective Sec61 inhibitor[8],[25], for their ability to discriminate between vascular cell adhesion molecule (VCAM) and preprolactin (pPL) signal peptides.
Target sequence in this assay (P61619 whole entry): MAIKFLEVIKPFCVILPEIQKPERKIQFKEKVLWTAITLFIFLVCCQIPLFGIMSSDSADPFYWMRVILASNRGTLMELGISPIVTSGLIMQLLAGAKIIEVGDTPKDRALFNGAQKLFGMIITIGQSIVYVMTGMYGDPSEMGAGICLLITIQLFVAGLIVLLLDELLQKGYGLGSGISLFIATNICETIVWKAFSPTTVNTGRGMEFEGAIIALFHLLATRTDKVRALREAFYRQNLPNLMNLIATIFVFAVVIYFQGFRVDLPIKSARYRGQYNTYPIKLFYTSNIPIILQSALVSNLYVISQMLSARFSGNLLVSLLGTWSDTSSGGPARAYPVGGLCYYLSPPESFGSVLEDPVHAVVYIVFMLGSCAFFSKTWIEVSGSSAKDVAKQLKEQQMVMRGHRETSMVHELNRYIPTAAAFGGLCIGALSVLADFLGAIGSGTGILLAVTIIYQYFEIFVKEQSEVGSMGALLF
Target sequence in this assay (P60059 whole entry, further chain): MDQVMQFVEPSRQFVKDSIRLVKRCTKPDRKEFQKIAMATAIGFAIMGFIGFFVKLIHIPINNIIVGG
Target sequence in this assay (P60468 whole entry, further chain): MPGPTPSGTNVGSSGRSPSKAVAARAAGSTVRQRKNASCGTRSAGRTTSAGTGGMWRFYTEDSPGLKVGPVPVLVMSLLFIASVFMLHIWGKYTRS

[2] = target: T1, Sec61; assay: cell-based; conditions: 24 h, range in brackets
Target sequence in this assay (P60059 whole entry): as the sequence (P60059 whole entry, further chain) above
Target sequence in this assay (P61619 whole entry): as the sequence (P61619 whole entry) above
Target sequence in this assay (P60468 whole entry, further chain): as the sequence (P60468 whole entry, further chain) above

[3] = system: mouse splenocytes; assay: Cytokine secretion assay, stimulated mouse splenocytes (MSD U-PLEX); assay type: cell-based; conditions: 24 h, tested 0.025–25,000 nM
[4] = system: Sec61 R66I TNFa(FL) reporter cells; assay: CTG (CellTiter-Glo) viability of TNFa(FL) reporter cells expressing Sec61 R66I; assay type: cell-based; conditions: replicate columns
Source text: Supplement 41589_2023_1326_MOESM7_ESM.xlsx, sheet "Panel B" | column: Sec61 R66I - CTG (TNFa(FL))

## CC(C)CC1NC(=O)C(Cc2cn(Cc3ccc(Br)cc3)c3ccccc23)N(C)C(=O)C(CC(F)(F)F)NC(=O)C(CC(C)C)N(C)C(=O)C(CC(F)(F)F)NC(=O)C(CCC#N)OC(=O)C(C)N(C)C1=O (stereo not drawn) [KZR-8445] (cyclo([X1]L[NMeA][X2][ξAla(CF3)][NMeL][ξAla(CF3)]); configuration not given here)
[1]; IL23A SP-GLuc
  IC50: 425 nM
[1]; IL23R SP-GLuc
  IC50: 366 nM
[1]; ITGA3 SP-GLuc
  IC50: 18300 nM
[1]; ITGB1 SP-GLuc
  IC50: > 25000 nM
[1]; ITGB3 SP-GLuc
  IC50: 106 nM
[1]; ITGB5 SP-GLuc
  IC50: 89.1 nM
[1]; ITGB7 SP-GLuc
  IC50: 228 nM
[1]; JTB SP-GLuc
  IC50: 25.5 nM
[1]; KRTDAP SP-GLuc
  IC50: 570 nM
[1]; LCN6 SP-GLuc
  IC50: 101 nM
[1]; LDLR SP-GLuc
  IC50: 800 nM
[1]; LILRB2 SP-GLuc
  IC50: 1730 nM
[1]; LRP8 SP-GLuc
  IC50: 681 nM
[1]; LRRC32 SP-GLuc
  IC50: > 25000 nM
[1]; MASP2 SP-GLuc
  IC50: 127 nM
[1]; METTL7a SP-GLuc
  IC50: 6900 nM
[1]; NGF SP-GLuc
  IC50: 347 nM
[1]; P3H1 SP-GLuc
  IC50: 72.7 nM
[1]; PCDHA4 SP-GLuc
  IC50: 489 nM
[1]; PCSK9 SP-GLuc
  IC50: 1280 nM
[1]; PDCD1 SP-GLuc
  IC50: 37 nM
[1]; PRKCSH SP-GLuc
  IC50: 186 nM
[1]; PSG8 SP-GLuc
  IC50: 292 nM
[1]; SIRPA SP-GLuc
  IC50: 2030 nM
[1]; SSR2 SP-GLuc
  IC50: 137 nM
[1]; STAB1 SP-GLuc
  IC50: 670 nM
[1]; SUCO SP-GLuc
  IC50: 1450 nM
[1]; TGFB1 SP-GLuc
  IC50: 2210 nM
[1]; TGFB2 SP-GLuc
  IC50: 187 nM
[1]; TGFB3 SP-GLuc
  IC50: > 25000 nM
[1]; TGFBR1 SP-GLuc
  IC50: 134 nM
[1]; TIGIT SP-GLuc
  IC50: 590 nM
[1]; TMED10 SP-GLuc
  IC50: 462 nM
[1]; UCN SP-GLuc
  IC50: 5900 nM
[2]; HER3 signal peptide-GLuc, read-out: IC50 (nM) HER3
  IC50: 72 nM
[2]; PD1 signal peptide-GLuc, read-out: IC50 (nM) PD1
  IC50: 32 nM
[2]; full-length IL-2-GLuc, read-out: IC50 (nM) IL-2
  IC50: 84 nM
[2]; full-length TNFα-GLuc, read-out: IC50 (nM) TNFα
  IC50: 40 nM
[2]; prolactin signal peptide-GLuc, read-out: IC50 (nM) Prolactin
  IC50: 1070 nM
[3]; LPS-stimulation, read-out: IC50, IL-6 secretion
  IC50: 150 nM
[3]; Mus musculus, Splenocyte, LPS-stimulation, read-out: IC50, IL-1β secretion
  IC50: > 25000 nM
[3]; Mus musculus, Splenocyte, LPS-stimulation, read-out: IC50, IL-6 secretion
  IC50: 114 nM
[3]; Mus musculus, Splenocyte, LPS-stimulation, read-out: IC50, IL-23 secretion
  IC50: 206 nM
[3]; Mus musculus, Splenocyte, anti-CD3/CD28-stimulation, read-out: IC50, GM-CSF secretion
  IC50: 31.2 nM
[3]; Mus musculus, Splenocyte, anti-CD3/CD28-stimulation, read-out: IC50, IFNγ secretion
  IC50: 59.6 nM
[3]; Mus musculus, Splenocyte, anti-CD3/CD28-stimulation, read-out: IC50, TNFα secretion
  IC50: 103 nM
[3]; anti-CD3/CD28-stimulation, read-out: IC50, GM-CSF secretion
  IC50: 39.5 nM
[3]; anti-CD3/CD28-stimulation, read-out: IC50, IFNγ secretion
  IC50: 32 nM
[3]; anti-CD3/CD28-stimulation, read-out: IC50, TNFα secretion
  IC50: 84.7 nM
[4]; 0.32 nM
  Sec61 R66I - CTG (TNFa(FL)): 108 and 113 and 120
[4]; 1.6 nM
  Sec61 R66I - CTG (TNFa(FL)): 101 and 108 and 112
[4]; 8 nM
  Sec61 R66I - CTG (TNFa(FL)): 103 and 106 and 110
[4]; 40 nM
  Sec61 R66I - CTG (TNFa(FL)): 99 and 111 and 119
[4]; 200 nM
  Sec61 R66I - CTG (TNFa(FL)): 106 and 110 and 120
[4]; 1000 nM
  Sec61 R66I - CTG (TNFa(FL)): 112 (2×) and 113
[4]; 5000 nM
  Sec61 R66I - CTG (TNFa(FL)): 102 and 107 and 104
[4]; 25000 nM
  Sec61 R66I - CTG (TNFa(FL)): 101 and 94 and 102
